Experimental data taken from patent US5576439A, “Dihydropyridinecarboxylic acid anhydrides” (Ciba-Geigy Corporation, priority 1994, dated 1996).

How the values were obtained:
[1] = target: T1, ETA receptor (Sus scrofa, UniProt Q29010); assay: Inhibition of [^125 I] ET-1 binding to porcine thoracic aorta membranes
T1 construct: porcine thoracic aorta membranes (ETA receptor); from tissue; host or cells: porcine thoracic aorta membranes
T1 sequence (Q29010 21-427): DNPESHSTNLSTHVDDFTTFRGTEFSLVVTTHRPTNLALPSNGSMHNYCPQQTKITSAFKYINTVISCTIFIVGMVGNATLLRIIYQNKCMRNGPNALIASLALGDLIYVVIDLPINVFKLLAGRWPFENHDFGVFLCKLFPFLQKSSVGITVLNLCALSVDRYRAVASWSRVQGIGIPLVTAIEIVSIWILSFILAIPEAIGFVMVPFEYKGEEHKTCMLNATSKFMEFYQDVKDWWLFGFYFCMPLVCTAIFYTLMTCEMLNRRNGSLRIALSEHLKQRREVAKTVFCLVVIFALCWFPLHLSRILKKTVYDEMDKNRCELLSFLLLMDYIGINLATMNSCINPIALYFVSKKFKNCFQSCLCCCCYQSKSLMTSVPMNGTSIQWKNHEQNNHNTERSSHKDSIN
Method: (§1) Inhibition of the binding of [^125 I] ET-1 to porcine thoracic aorta membranes (ETA receptor) is determined according to Cioffi et al, J. Pharmacol. Exp. Ther. 262, 611 (1992); similarly inhibition of binding of [^125 I] ET-1 to rat cerebellum membranes (ETB receptor).

[2] = tested on: increase in blood pressure induced by ET-1; assay: Effect on pressor response to ET-1 in the conscious rat; format: in vivo; conditions: 10 mg/Kg i.v., 5 minute pretreatment, ET-1 0.25 nmol/kg i.v.
Method: (§2) The cardiovascular effects of ET-1 inhibitory activity can be determined as follows:
(§3) A 30 minute pretreatment with test compound (0.1-10 μM) is utilized to determine inhibition of the ET-1 induced contractile response in isolated rabbit aorta. The maximal response to ET-1 is measured at 0.1, 1 and 10 μM, respectively. Similar pretreatment with test compound (1 μM) is utilized to determine the effects of phenylephrine or KCl induced contraction, an indication that the specificity of hemodynamic affects is caused by intereaction with the endothelin receptor. A 5 minute pretreatment with test compound (10 mg/kg, i.v.) is also used to assess the effects on pressor response and attenuation of the depressor response to ET-1 (0.25 nmol/kg iv.) in the conscious rat.

[3] = target: T2, ETA receptor (Rattus norvegicus, UniProt P26684); assay: ETA receptor inhibitory activity by release of [^3 H]-inositol from labeled A7r5 cells; format: cell-based
T2 construct: labeled A7r5 cells; endogenous in cells; host or cells: A7r5 cells
T2 sequence (P26684 21-426): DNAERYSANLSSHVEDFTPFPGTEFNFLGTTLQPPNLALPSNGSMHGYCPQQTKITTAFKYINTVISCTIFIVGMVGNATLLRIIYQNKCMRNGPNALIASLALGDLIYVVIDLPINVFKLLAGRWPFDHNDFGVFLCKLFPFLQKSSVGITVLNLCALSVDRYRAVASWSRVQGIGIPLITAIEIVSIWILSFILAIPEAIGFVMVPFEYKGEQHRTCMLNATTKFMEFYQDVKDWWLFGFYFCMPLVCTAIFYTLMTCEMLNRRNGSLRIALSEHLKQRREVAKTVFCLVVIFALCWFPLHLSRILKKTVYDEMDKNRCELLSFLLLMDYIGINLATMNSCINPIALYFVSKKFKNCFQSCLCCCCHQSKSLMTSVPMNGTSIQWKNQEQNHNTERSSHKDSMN
Text: For instance the ETA receptor inhibitory activity can be determined by measuring the release of [^3 H]-inositol from [^3 H]-inositol labeled A7r5 cells, as previously described by Cioffi et at, J. Cardiovasc. Pharmacol. 22 (Suppl. 8), S-168 (1993).

[4] = tested on: ET-1 induced contractile response in isolated rabbit aorta; assay: Inhibition of ET-1 induced contractile response in isolated rabbit aorta; conditions: 10 μM, 30 minute pretreatment
Method: as §2, §3

[5] = target: T3, ETB receptor (Rattus norvegicus, UniProt P21451); assay: Inhibition of [^125 I] ET-1 binding to rat cerebellum membranes
T3 construct: rat cerebellum membranes (ETB receptor); from tissue; host or cells: rat cerebellum membranes
T3 sequence (P21451 27-442): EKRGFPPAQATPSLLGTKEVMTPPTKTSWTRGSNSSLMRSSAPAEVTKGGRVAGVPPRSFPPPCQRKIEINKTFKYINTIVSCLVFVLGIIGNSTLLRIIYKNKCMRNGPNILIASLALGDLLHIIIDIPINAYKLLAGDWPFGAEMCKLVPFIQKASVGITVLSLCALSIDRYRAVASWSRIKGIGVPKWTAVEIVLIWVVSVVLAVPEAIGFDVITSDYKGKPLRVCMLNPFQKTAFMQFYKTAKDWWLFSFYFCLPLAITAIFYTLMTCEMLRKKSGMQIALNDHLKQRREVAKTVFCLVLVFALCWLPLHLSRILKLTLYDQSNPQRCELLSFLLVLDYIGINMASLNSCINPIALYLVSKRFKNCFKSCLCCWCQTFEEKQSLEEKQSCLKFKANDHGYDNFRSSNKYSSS
Method: as §1

COC(=O)C1=C(C)NC(C)=C(C(=O)OC(=O)C2=C(C)NC(C)=C(C(=O)OC)[C@@H]2c2cccc([N+](=O)[O-])c2)[C@@H]1c1cccc([N+](=O)[O-])c1 [Example 1, meso-1,4-dihydro-5-methoxycarbonyl-2,6-dimethyl-4-(3-nitrophenyl)-3-pyridine-carboxylic acid anhydride]
IC50 [1]: ~0.016 µM
antagonism of increase in blood pressure induced by ET-1 [2]: completely antagonizes
IC50 [3]: ~0.14 µM
inhibition of ET-1 induced contractile response [4]: 77%
IC50 [5]: ~0.3 µM
